In patent US20220155322A1, “USE OF NATRIURETIC PEPTIDES TO ASSESS AND TREAT ACUTE KIDNEY INJURY” (Mayo Foundation for Medical Education and Research, priority 2019, published 2022):
Positions of bridges follow the written chain, without caps; N, C: chain ends. Residues, ends and D or L forms follow the SMILES beside them.

Key:
[1] = tested on: ischemic AKI model in normal mongrel canines; test: Ischemic AKI in canines: hormonal and renal function; format: in vivo, canine
[2] = tested on: ischemic AKI model in normal mongrel canines; format: in vivo, canine; settings: after ischemia, 16.3 pmol/kg/min
Description: Ischemic Acute Kidney Injury in Canines: An ischemic AKI model in normal mongrel canines (male, 25-30 kg, n=5 per group) was created with high dose intravenous indomethacin infusion (10 mg/kg with NaHCO3[5 mg/kg] dissolved in 50 ml distilled water) followed by suprarenal ACC (Sandok et al., J Am Soc Nephrol, 196-202, 1992). Briefly, canines were anesthetized with intravenous pentobarbital (15-30 mg/kg) and fentanyl (4-12 μg/kg), intubated, and mechanically ventilated on air with supplemental oxygen, 3 L/minute, 12 cycles/minute (Harvard Apparatus; […], Mass.). The femoral and carotid arteries were accessed for mean arterial pressure (MAP) monitoring and blood sampling. The femoral vein was cannulated for continuous inulin infusion and saline/indomethacin/drug infusions. The left renal artery was attached with a probe for renal blood flow (RBF) measurement and a catheter was placed in the left ureter for passive urine collection. A flow-directed balloon-tipped thermodilution catheter was advanced to the pulmonary artery through the external jugular vein for measurement of cardiac filling pressures and cardiac output (CO). After a 60 minute equilibration, baseline (BL) characteristics were established. […] GFR values were calculated based on inulin clearance. Urinary sodium was measured with pHOx Ultra (Nova Biomedical; Waltham, Mass.).

[3] = tested on: human primary renal proximal tubular epithelial cells (HRPTC); test: Oil immersion induced hypoxia/reoxygenation (H/R) apoptosis, Caspase 3/7 IncuCyte live imaging; format: cell-based; design: apoptotic signals in HRPTC after H/R: dose or concentration left out as unconfirmed
Description: Oil Immersion Induced Hypoxia/Reoxygenation in vitro: HRPTC (ScienCell Research Laboratories; Carlsbad, Calif.) were seeded in 96-well plates and cultured for 1 day until 70-80% confluence. Passages 3-5 were used for experiments. Caspase 3/7 green apoptosis assay agent (Essen BioScience; Ann Arbor, Mich.) was added to the culture medium for detection of apoptosis. Plates were then transferred to a time-lapsed, live imaging system IncuCyte (Essen BioScience) for apoptosis monitoring for a total of 24 hours. H/R in cells was mimicked with mineral oil (Sigma, St Louis, Mo.) immersion (Meldrum et al., J Surg Res, 99:288-293, 2001). Cells were immersed in oil for 2 hours, washed twice, and placed in fresh medium containing vehicle (H/R group) or drugs. ANP, BNP, and CRRL269 were used at concentrations of 10^−8, 10^−7, or 10^−6 M. PKG (an important cGMP binding protein) activating analogue 8-pCPT-cGMP (Sigma; St. Louis, Mo.), which is specific for PKG and has low affinity for phosphodiesterases, was used at concentrations of 10^−6, 10^−5, or 10^−4 M. Cells were treated with 10^−6-, 5×10^−6-, or 1.5×10^−5 M PKG inhibitor KT-5823 (Abcam; Cambridge, Mass.) for 30 minutes before 10^−6 M CRRL269 was added. Cells without H/R stimulation were labeled as the negative control (Neg Ctrl) group. Apoptosis signals (e.g., apoptosis object counts) were analyzed with software provided by IncuCyte.

[4] = tested on: apoptosis pathway genes in HRPTC; test: Apoptosis pathway PCR array in H/R HRPTC; format: cell-based, human
Description: (§1) Apoptosis Pathway PCR Array and Caspase7 Real Time PCR: Two groups of HRPTC (vehicle and 10^−6 M CRRL269) that underwent oil induced H/R, and a negative control (Neg Ctrl) group with no H/R stress, were cultured in 6-well plates as described above, and total RNA was collected using the Trizol method (Thermo Fisher Scientific; Waltham, Mass.). RNA was reverse transcribed for cDNA for PCR RT2 array experiments. Apoptosis pathway PCR array (Qiagen; Germantown, Md.) was conducted using the SYBR green (Bio-Rad Laboratories; Hercules, Calif.) method in a Lightcycler 480 (Roche Diagonostics; Indianapolis, Ind.). Raw data were analyzed with the online Qiagen RT2 PCR analysis program. […] A Caspase7 RT-PCR primer (PPH00110C-200, Qiagen) was obtained, and RT-PCR reactions were performed using the SYBR green method in a Lightcycler 480. The B2M gene (primer PPH01094E, Qiagen) was used for normalization.

[5] = tested on: Caspase7 gene; test: Caspase7 real time PCR in H/R HRPTC; format: cell-based, human; settings: H/R with 10^−6 M CRRL269, H/R alone 1.89 fold, normalized to B2M
Description: as §1

[6] = tested on: ischemic AKI model in normal mongrel canines; test: CNP levels (RIA) and renal NPPC mRNA (RT-PCR) in canine AKI; format: in vivo
[7] = 16.3 pmol/kg/min infusion for 2 hours after ACC, vs vehicle
[8] = 16.3 pmol/kg/min, compared to vehicle
[9] = postischemia phases, 16.3 pmol/kg/min, vs vehicle
[10] = HRPTC, H/R, 10^−8, 10^−7 or 10^−6 M

CC[C@H](C)[C@@H]1NC(=O)[C@H](CCCNC(=N)N)NC(=O)[C@H](CC(=O)O)NC(=O)[C@H](CCSC)NC(=O)[C@H](CCCCN)NC(=O)[C@H](CCCNC(=N)N)NC(=O)CNC(=O)[C@H](Cc2ccccc2)NC(=O)[C@@H](NC(=O)[C@H](CO)NC(=O)[C@H](CO)NC(=O)[C@H](CCCNC(=N)N)NC(=O)[C@H](CCCNC(=N)N)NC(=O)[C@H](CC(C)C)NC(=O)[C@H](CO)NC(=O)[C@H](CCCNC(=N)N)NC(=O)[C@@H]2CCCN2C(=O)[C@H](C)NC(=O)[C@@H](N)[C@@H](C)O)CSSC[C@@H](C(=O)N[C@@H](CC(N)=O)C(=O)N[C@@H](CO)C(=O)N[C@@H](Cc2ccccc2)C(=O)N[C@@H](CCCNC(=N)N)C(=O)N[C@@H](Cc2ccc(O)cc2)C(=O)O)NC(=O)CNC(=O)[C@H](CC(C)C)NC(=O)CNC(=O)[C@H](CO)NC(=O)[C@H](CO)NC(=O)[C@H](CO)NC(=O)[C@H](CO)NC1=O [CRRL269] (H-TAPRSLRRSSCFGRKMDRISSSSGLGCNSFRY-OH; disulfide 11-27)
plasma cGMP levels [1, 7]: increased | urinary cGMP levels [1, 7]: increased | renal parenchyma cGMP levels ([1]; 16.3 pmol/kg/min infusion for 2 hours, ex vivo cortex and medulla): increased | urinary sodium excretion (UNaV), natriuresis [1, 8]: significantly induced | urine output (UV), diuresis [1, 8]: significantly induced | plasma (circulating) ANGII levels ([1]; post-ischemia CL1 to CL4, 16.3 pmol/kg/min, vs vehicle): significantly reduced | glomerular filtration rate (GFR) [1, 9]: maintained | renal blood flow (RBF) [1, 9]: maintained | pulmonary capillary wedge pressure (PCWP) [2]: reduced | right atrial pressure (RAP) [2]: reduced | apoptotic signals in HRPTC after H/R ([3]; CRRL269, compared to H/R group alone): significantly reduced | anti-apoptotic effect compared to ANP [3, 10]: more robust anti-apototic effects compared to ANP | anti-apoptotic effect in comparison with BNP [3, 10]: trend of superiority | Caspase7 gene down-regulation in PCR array ([4]; 10^−6 M CRRL269): at least two-fold | number of apoptosis pathway genes down-regulated at least 2 fold ([4]; 10^−6 M CRRL269, 84-gene array): 8 out of 84 | Caspase7 gene expression level (RT-PCR) [5]: 1.25 fold | cortical NPPC gene expression levels (RT-PCR) ([6]; AKI canine renal cortex, normalized to GAPDH, vs vehicle): elevated | urinary CNP levels ([6]; AKI canines, 16.3 pmol/kg/min infusion, compared to vehicle): increased
